Read-outs that look alike come from different tables or passages of the source.
Legend:
γ-secretase complex = γ-secretase complex (Homo sapiens, UniProt P49768); assay: APP-C99 counter assay (GSI reporter assay); format: cell-based; parameters: AUC APP: scale not given here; conditions: for remaining activity at 10 µM / remaining activity at 25 µM / remaining activity at […]: 24 h, APP-C99 counter assay, read-out: 3p-DR in % of DMSO counter; for remaining activity at […]: 1,25µM; for AUC APP: area under the 14-point dose-response curve, replicates averaged
Experimental: To this end, we used a previously established reporter gene-based GSI assay (APP-C99) (Fig. 3A), which measures γ-secretase activity through cleavage of amyloid precursor protein (APP), another protein processed by the γ-secretase complex[24]
Plasmids for APP and luciferase are described in[24] and the renilla plasmid described above generated for this project was used to normalize firefly values. 24 h post transfection cells were seeded on compound plates and cells were cultivated for 24 h before luciferase signals were read, as described.
Two-fold concentrations of compounds were diluted in 10 µl cell culture medium and brought to one-fold by seeding 10 µl containing 4000 cells of the respective cell type on each well of a 384-well plate, as described above. Analogous to the previous assays, all plates contained one DMSO and DAPT control column with the Notch reporter cell line (#A1-11) and a DMSO only and Notch inhibitor control plate was read before the measuring the screening plates. In addition, DAPT and DMSO were spotted in a dose response fashion, and a minimum of four replicates were read. Dose-responses of compounds were recorded in triplicates for each concentration reading out the dual luciferase reporters, as described above. Dose response assays were read together in one session. To measure compound effects, the different assays dose–response curves were fitted using the log(inhibitor) vs. response – Variable slope (model: Y = Bottom + (Top–Bottom)/(1 + 10^((LogIC50-X)*HillSlope)) equation.
A DMSO plate was read before measuring luciferase activity of compound spotted plates. APP firefly luciferase reporter assays were read with a signal integration time of 0.1 s, instead of 0.5 s used for the Notch reporter to reduce signal overlap between wells. […] The area-under-the-curve (AUC) was calculated on dose–response curves using Graphpad Prism.

Notch signalling = assay: Notch reporter assay (12xCSL firefly luciferase / renilla luciferase, HEK293T Notch1ΔE reporter cell line clone #A1-11); format: cell-based; parameters: AUC Notch: scale not given here; conditions: for IC50 / activity at 10 µM / activity at 25 µM / activity: Homo sapiens, HEK-293T; for activity: 1,25µM; for AUC Notch: area under the 14-point dose-response curve, replicates averaged; for Bottom (Emax): Emax indicated independent from assay constraints, in % (unit assumed)
Text: To identify novel Notch inhibitors in an unbiased manner, we generated a novel Notch reporter construct, which records the level of Notch signalling immediately downstream of receptor activation rather than further downstream in the signalling cascade, for example at the level of Hes and Hey proteins (Fig. 1B). […] The reporter construct carries piggy-bac sequences at both ends of the promoter-reporter cassette as well as cSH4 insulator elements to reduce transcriptional noise[21] and was transfected into HEK293T cells. To achieve a robust level of Notch receptor activity in the HEK293T reporter cell line and to confine the search for inhibitors to compounds affecting the receptor function and eliminating the need for ligand activation, a truncated ligand-independent version of the Notch1 receptor, mimicking an S2-cleaved Notch1 receptor (Notch1ΔE) and spontaneously activated by S3-cleavage[22] (Fig. 1C) was introduced into the cell line carrying the reporter construct (Fig. 1D). In addition, an HSV-TK-renilla luciferase plasmid was introduced into the cell line as an internal control for normalisation of the reporter expression (Fig. 1D).
A de novo Notch reporter construct, composed of six dimeric CSL binding sites linked to a basic b-globin promoter and followed by a firefly luciferase gene and a PEST degradation domain was synthesised (GeneArt). The construct was stably introduced into HEK293T cells, and zeocin (0.1 mg/ml) or Puromycin (0.05 mg/ml (ThermoFisher, cat #R25001, #A1113803) were used as selection markers. A clonal cell line (clone #A1) with robust renilla expression and enhanced firefly luciferase expression upon transient transfection of Notch1 ICD or Notch1ΔE constructs was selected, and a UB6 promoter-Notch1DE construct was stably introduced into this cell line using Blasticidin (0.1 mg/ml; ThermoFisher, cat #A1113903) as a selection marker. Stable cell lines were generated by serial dilution and only clonal colonies were selected for further evaluation. To measure luciferase reporter activity, cells were washed in cold PBS, detached, and collected in pre-warmed cell culture medium and centrifugated for five min at 200xg. The cell pellet was resuspended in medium, cells were counted, and 4,000 cells were seeded in each well of a white 384 well plate (Corning #3670) in 20 µl medium containing either DMSO or the GSI DAPT (N-[N-(3,5-Difluorophenacetyl)-L-alanyl]-S-phenylglycine t-butyl ester, Sigma-Aldrich, cat #565784-M) and incubated for 24 h. The efficacy of the reporter gene system was determined by monitoring the level of luciferase activation in the absence or presence of different amounts of DAPT in several cell clones. Luciferase activity was assessed using the dual-GLO luciferase detection kit from Promega (cat # E2920), following the manufacturer’s instructions. A minimum of two technical replicates were measured per clone using a SpectraMaxi3 plate reader (Molecular Devices). Reporter activity of different clones and in response to DAPT was assessed by normalising firefly (Notch activity) to renilla luciferase signals. Normalised signals of individual clones cultivated in DMSO were then compared to corresponding signals generated with DAPT-treated cells. The cell clone with the strongest signal to control ratio (DMSO to DAPT) was then selected for further exploration (clone #A1-11).
37,966 compounds were spotted by the compound center at SciLifeLab (https://www.scilifelab.se/) on a total of 120 plates (Greiner #781080) at a fixed concentration of 10 µM and the screening process spanned five consecutive sessions. The layout of each plate contained one column for DMSO and one for DAPT controls to determine the quality and reliability of the data. DAPT controls were spotted at 10 µM and DMSO was spotted in an equimolar volume. In addition, plates spotted with only DMSO were utilized to investigate the impact of plate effects before and after each session. […]

[1] = 14p APP assay DR, bottom constrained to Emax of positive control LY-411575
[2] = 14p Notch assay DR, bottom constrained to Emax of positive control DAPT, read-out: approximated IC50
[3] = 14p Notch assay DR, log10 value, bottom constrained to Emax of positive control DAPT, read-out: approximated LogIC50 (converted)
[4] = 10 µM, primary screen, 24 h, unit from Fig. 2 legend, read-out: Primary screen at 10 µM (Notch reporter signal)
[5] = 10 µM, three-dose confirmation screen, unit from Fig. 2 legend, read-out: Hit confirmation at 10 µM (Notch reporter signal)
[6] = 10µM, 3-point DR confirmation screen, Notch reporter assay, read-out: inhibitor ratio in % of DMSO in 3 point DR
[7] = 10 µM, sheet conf vs counter 10 µM, same values as 3-point DR confirmation screen, read-out: Confirmation screen
[8] = 25µM, 3-point DR confirmation screen, Notch reporter assay, read-out: inhibitor ratio in % of DMSO in 3 point DR
[9] = 25 µM, Notch reporter 3-point dose-confirmation assay, sheet "conf vs counter 25 µM", read-out: Confirmation screen
[10] = 3-point DR confirmation screen, Notch reporter assay, read-out: inhibitor ratio in % of DMSO in 3 point DR

Hill-slope (γ-secretase complex; [1])	remaining activity at 10 µM (γ-secretase complex)	remaining activity at 25 µM (γ-secretase complex)	remaining activity at […] (γ-secretase complex)	AUC APP (γ-secretase complex)	IC50 (Notch signalling; [2])	IC50 (Notch signalling; [3])	SMILES	activity at 10 µM (Notch signalling; [4])	activity at 10 µM (Notch signalling; [5])	activity at 10 µM (Notch signalling; [6])	activity at 10 µM (Notch signalling; [7])	activity at 25 µM (Notch signalling; [8])	activity at 25 µM (Notch signalling; [9])	activity (Notch signalling; [10])	AUC Notch (Notch signalling)	Bottom (Emax) (Notch signalling; 14p Notch assay DR)	also measured
0.0527	153%	158%	102%	758.8	3.5 µM	3.16 µM	COc1cccc(CNc2ccc(N3CCOCC3)cc2)c1OCc1ccccc1F [CBK074406]	56.4%	68%	68%	68%	66.7%	66.7%	98.6%	518.0		Hill-slope (γ-secretase complex; 14p APP assay DR, bottom constrained to Emax of positive control CB-103): 0.00965; IC50 (Notch signalling; 14p Notch assay DR, averaged when replicate measurements were available, read-out: averaged IC50s): 3.5 µM; IC50 (Notch signalling; 14p Notch assay DR, bottom constrained to Emax of positive control RO4929097, read-out: approximated IC50): 3.5 µM; IC50 (Notch signalling; 14p Notch assay DR, log10 value, bottom constrained to Emax of positive control RO4929097, read-out: approximated LogIC50 (converted)): 3.16 µM
-4.6e-12				549.2			CC(=O)Nc1cccc(-c2cn3ccnc3c(Nc3ccccc3)n2)c1 [CBK066160]								362.0	87.0	curve fit information (γ-secretase complex; [1]): IC50 indeterminate
0.0761	165%	197%	113%	538.6	5.1 µM	5.01 µM	CCOc1ccccc1-c1ccccc1NC(=O)c1ccc2c(c1)ncn2C1CC1 [CBK285808]	35.1%	64.7%	64.7%	64.7%	45.7%	45.7%	102%	300.0	26.5	
-2.8	80.5%	59.7%	124%	428.7	1.8 µM	1.58 µM	CC(=O)Oc1cccc(N2C(=O)c3ccc(Oc4cccc(N)c4)cc3C2=O)c1 [CBK261099]	31.5%	28.1%	28.1%	28.1%	20.3%	20.3%	87.9%	282.0	18.6	
-0.0106				480.2			CC(C)C(=O)Nc1sc2c(c1C(=O)NCc1cccnc1)CCC2 [CBK306144]								357.0	~ 92,84	approximated IC50, Notch reporter assay (Notch signalling; 14-point dose-response, Fig. 4): Indeterminate
-16.9				485.9			COc1cc(Nc2nc(-c3cccc(Cl)c3)cn3ccnc23)cc(OC)c1OC [CBK066271]								348.0	87.7	
0.00761				491.7			c1ccc(Nc2nc(-c3ccc(Oc4ccccc4)cc3)cn3ccnc23)cc1 [CBK066406]								367.0	88.8	
-0.00263	115%	129%	119%	662.9	3.2 µM	3.16 µM	Cc1ccc(-c2noc([C@@H]3Cc4[nH]cnc4CN3C(=O)CCC(=O)O)n2)cc1 [CBK288958]	50.2%	49.6%	49.6%	49.6%	32.2%	32.2%	87.5%	600.0	57.4	
0.0705				553.6			COC(=O)c1cccc(N2C(=O)c3ccc(Oc4cccc(NC(C)=O)c4)cc3C2=O)c1 [CBK033640]								399.0	91.5	
-0.00928				674.5	> 40 µM	> 40 µM	Cc1cc(O)n(-c2nc3ccccc3s2)n1 [CBK007453]								628.0	95.0	IC50 (Notch signalling; 14-point dose-response, Fig. 4, read-out: approximated IC50, Notch reporter assay): > 40 µM
-1.0				698.8			Cc1cc(C)c2[nH]c(C(=O)N[C@H](c3ccccc3)c3ccnn3C)c(C)c2c1 [CBK315984]								607.0	96.7	approximated IC50, Notch reporter assay (Notch signalling; 14-point dose-response, Fig. 4): Indeterminate
0.0798				545.0	23 µM	25.1 µM	COc1cc(Nc2cncc(-c3cccc(N)c3)n2)cc(OC)c1OC [CBK065120]								329.0	47.4	
